Experimental data published in patent US8716558B2, “Method of altering glycosylation of proteins in response to nojirimycin glucuronide in a plant cell expressing glucuronidase” (Marker Gene Technologies, Inc., priority 1999, dated 2014).

How the values were obtained:
[1] = test system: E. coli strains CSH23/S90C and CSH22/S90C; assay: Bacterial growth assay under non-inducing conditions (loss of activity upon conjugation); assay type: cell-based; settings: 10 μg/ml 5FUR or 16.2 μg/ml M0174, M9 media, FIG. 1
Protocol: E. coli strains CSH23/S90C and CSH22/S90C were tested with 5-fluorouridine (5FUR) and the 5FUR-galactoside conjugate described in Example 16, 5-fluorouridine-5′-O-β-D-galactopyranoside, (M0174) to confirm loss of biological activity upon conjugation. CSH23 is a strain inducible for lacZ expression; CSH22 is a deletion mutant for lacZ and is therefore uninducible. Other strains with these properties are commercially available. When grown under non-inducing conditions, neither strain will produce β-galactosidase. Each strain was innoculated into 10 mL M9 minimal media and grown in non-inducing conditions, shaking at 37° C. overnight. Overnight cultures (500 μL) were transferred into […] fresh M9 media and grown to logarithmic phase for 4 hours prior to beginning the experiments. 1 mL of this culture was transferred to 10 ml fresh M9 media containing 10 μg/ml 5FUR, 16.2 μg/ml M0174, or no additions, and returned to the incubator. Growth curves were generated by removing aliquots of each culture at 30 minute intervals and reading absorbance at 420 nm. All final data was run in duplicate trials.

[2] = test system: E. coli CSH36/S90C and CSH22/S90C co-culture; assay: Co-culture bystander effect, colony growth on X-gal plates; assay type: cell-based; settings: 10 μg/ml 5FUR or 16.2 μg/ml M0174, plated on X-gal
Protocol: E. coli strains CSH36/S90C and CSH22/S90C were grown in co-culture and tested with the 5FUR-galactoside conjugate described in Example 16, 5-fluorouridine-5′-O-β-D-galactopyranoside, (M0174) to show translocation of drug released in β-Gal expressing cells to other cells in the culture. CSH36 is a constitutive mutant for lacZ and therefore produces β-galactosidase regardless of induction conditions. CSH22 is a deletion mutant for lacZ and is therefore uninducible. Each strain individually and both strains together were innoculated into 10 mL aliquots of M9 minimal media and grown shaking at 37° C. overnight. Overnight cultures (500 μL) were transferred into 10 mL fresh M9 media and grown to logarithmic phase for 4 hours prior to beginning the experiments. 1 mL of this culture was transferred to 10 ml fresh M9 media containing 10 μg/ml 5-fluorouridine (5FUR), 16.2 μg/ml M0174, or no additions, and returned to the incubator. Growth curves were generated by removing aliquots of each culture at 30 minute intervals and reading absorbance at 420 nm. Remaining portions of these cultures were allowed to grow overnight, and final absorbance readings were taken. […] Plates were incubated at 37° C. for 48 hours, then evaluated for growth of white (indicating lacZ −, CSH22 cells) and blue (indicating lacZ+, CSH36 cells) colonies.

[3] = test system: D5 tumor cells lipofected with a lacZ containing vector; assay: In vivo pulmonary tumor growth, lipofected tumor cells; parameters: species or system C57/J(B6) mice
Protocol: To test the efficacy of pro-drug delivery in vivo for initiation and mediation of a host cellular immune response to genetically modified tumor, C57/J(B6) mice (22-36 g each) are injected intravenous with 50 μL HBBS containing 1×10^6 D5 tumor cells that are either untreated, lipofected with a vector containing the lacZ gene, lipofected with a vector containing both the lacZ and the H-2K allogeneic major histocompatability complex (MHC) class I gene (Wahl, et al, 1995), or lipofected with a vector containing the H-2K gene alone. After 2 days, accumulation of the tumor cells in the lung tissue is expected. Two animals are retained as controls, and necropsy examination and tumor staining of the lipofected animals is performed at the end of the trial, to confirm pulmonary tumor growth.
The doxorubicin-galactoside pro-drug of Example 19 is administered intraperitoneally starting at Day 3, for 20 days, to mice that received lipofected tumor cells in doses of either 5, 10 or 25 mg/kg/day, and to mice that received untreated tumor cells in doses of 50 mg/kg/day. Measurement of tumor growth is determined by necropsy examination of lung tissue and staining at day 25.

[4] = test system: E. coli CSH36/S90C and CSH22/S90C co-culture; assay: Co-culture selection, colony growth on X-gal plates; assay type: cell-based; settings: 30 μg/ml chloramphenicol or 42 μg/ml M0165, plated on X-gal
Protocol: E. coli strains CSH36/S90C and CSH22/S90C were grown in co-culture and tested with the chloramphenicol galactoside pro-drug (M0165) described in Example 15, to show lack of translocation of drug released in β-galactosidase expressing cells to other cells in the culture, and therefore selection for the lacZ-cells. CSH36 is a constitutive mutant for lacZ and therefore produces β-galactosidase regardless of induction conditions. CSH22 is a deletion mutant for lacZ and is therefore uninducible. Each strain individually and both strains together were innoculated into 10 mL aliquots of M9 minimal media and grown shaking at 37° C. overnight. Overnight cultures (500 μL) were transferred into 10 mL fresh M9 media and grown to logarithmic phase for 4 hours prior to beginning the experiments. 1 mL of this culture was transferred to 10 ml fresh M9 media containing 30 μg/ml chloramphenicol, 42 μg/ml M0165, or no additions, and returned to the incubator. Growth curves were generated by removing aliquots of each culture at 30 minute intervals and reading absorbance at 420 nm. Remaining portions of the cultures were allowed to grow overnight, and final absorbance readings were taken. […] Plates were incubated at 37° C. for 48 hours, then evaluated for growth of white (indicating lacZ −, CSH22 cells) and blue (indicating lacZ +, CSH 36 cells) colonies.

[5] = test system: D5 murine melanoma cells lipofected with pCMVβ (lacZ); assay: MTT cell proliferation assay, lacZ-lipofected tumor cells; assay type: cell-based
Protocol: (§1) For the MTT assay, cells are incubated with the MTT reagent, which is turned over by live cells to a purple MTT formazan product. Turnover is directly proportional to the number of live cells, enabling a proportional measurement of the number of cells to be achieved by measuring the production of MTT formazan. Media is removed from cells in the twelve well plate and replaced with DME containing 10 mM Hepes. 0.25 mL of a 2 mg/ml solution of MTT is then added to each well, and plates are covered and wrapped with aluminum foil and incubated at 37° C. for three hours. Plates are then emptied of the media MTT solution, and 1 mL of DMSO and 125 μL of Sorensens glycine buffer are added to each well to solubilize the MTT formazan product. Absorbence of each sample is measured against a DMSO blank at 570 nm.
(§2) Lipofection of D5 murine melanoma cells with the pCMVβ plasmid containing the lacZ gene provided a lacZ positive set of cells with transient but high levels of ? -galactosidase expression. A 60 mm plate of D5 cells, 80% confluent, was lipofected for 5 hours with 3.6 μg/ml pCMVB (a plasmid containing the lacZ gene)(CLONTECH) using 36 μL lipofectAmine reagent (Life Technologies, Gibco BRL). After lipofection, fresh media was added to the cells to dilute the lipofection reagent, and cells were grown for 2 days. A cover slip of the lipofected D5 cells was stained with X-gal and transfection efficiency was estimated at 70%. D5 and lipofected D5 cells were plated in 12 well plates at a density of 12×10^3 cells per well and incubated 6 hours. The 5FUR-galactoside conjugate described in Example 16, 5-fluorouridine-5′-O-β-D-galactopyranoside (M0174) was added to cells at various concentrations and cells were incubated 6 hours, after which the media was changed. Cells were allowed to grow another 36 hours, then the MTT assay was performed to estimate the number of living cells per well. Cell numbers were expressed as a percent of the number of cells in the control well. All assay points were performed in duplicate and averaged. […]

[6] = test system: D5 mouse melanoma tumors lipofected with a lacZ vector; assay: In vivo growth of subcutaneous tumors from lacZ-lipofected cells; parameters: species or system C57/J(B6) mice; settings: 25 and 50 mg/Kg/Day intraperitoneally for 4 days from Day 3
Protocol: (§3) The 5FUR-galactoside conjugate described in Example 16, 5-fluorouridine-5′-O-β-D-galactopyranoside (M0174) was tested to determine the reduction of tumor growth of subcutaneously implanted D5 mouse melanoma tumors that had been lipofected with a vector containing the lacZ marker gene in mice. […] C57/J(B6) mice (22-36 g each) were injected in the right flank with 50 μL HBBS containing 1×10^6D5 tumor cell that were either untreated or lipofected with a vector containing the lacZ gene. M0174 was administered intraperitoneally starting at Day 3, for 4 days, to mice that had received lipofected tumor cells in doses of either 25 or 50 mg/kg/day, and to mice that had received untreated tumor cells in doses of 100 mg/kg/day. Measurement of tumor area in mm^2 began on Day 8 and ended on Day 26. […] NO EFFECT (i.e. no significant drug release) for pro-drug on non-lipofected cells was found (even at 100 mg/Kg/Day), indicating once again a lack of biological activity for the pro-drug, M0174.

[7] = test system: D5 mouse melanoma tumors (untreated cells); assay: In vivo growth of subcutaneous tumors from non-lipofected cells; parameters: species or system C57/J(B6) mice; settings: 100 mg/Kg/Day intraperitoneally for 4 days from Day 3
Protocol: as §3

[8] = test system: D5 murine melanoma cells; assay: MTT cell proliferation assay, non-lipofected tumor cells; assay type: cell-based
Protocol: as §1, §2

[9] = test system: E. coli CSH36 (constitutive mutant for lacZ); assay: Bacterial growth with ONPG; assay type: cell-based; settings: CSH36, no IPTG, 0.3 mg/ml ONPG
Protocol: (§4) E. coli strains CSH36 and W3110 available from the ATCC, Manassas, Va. were tested with orthonitrophenyl β-D-galactopyranoside (ONPG), according to the procedure of Marsh, 1994, to confirm release of compound upon induction of β-galactosidase production. W3110 is a wild-type E. coli strain inducible for lacZ expression; CSH36 is a constitutive mutant for lacZ and therefore produces β-galactosidase regardless of induction conditions. Each strain was innoculated into 10 mL M9 minimal media and grown in non-inducing conditions, shaking at 37° C. overnight. W3110 was also innoculated into 10 mL M9 media containing 0.3 mM iso-propyl thiogalactoside (IPTG) (W3110i) to induce β-galactosidase production. Overnight cultures (500 μL) were transferred into 10 mL fresh M9 media (+/−IPTG) and grown to logarithmic phase for 4 hours prior to beginning the experiments. 1 mL of this culture was transferred to 10 ml fresh M9 media (+/−IPTG) containing 0.3 mg/ml ONPG or no additions, and returned to the incubator. Growth curves were generated by removing aliquots of each culture at 30 minute intervals and reading absorbance at 420 nm. All final data was run in duplicate trials (A and B). […] ONP is also toxic to the bacteria, and therefore growth was retarded in those cultures producing β-galactosidase and turning over ONPG to ONP (see below and FIG. 2).

[10] = test system: E. coli W3110 (inducible for lacZ); assay: Bacterial growth with ONPG with or without IPTG induction; assay type: cell-based; settings: 0.3 mg/ml ONPG
Protocol: as §4

Question: With `O=c1[nH]c(=O)n([C@@H]2O[C@H](CO)[C@@H](O)[C@H]2O)cc1F` [Example 5FUR, 5-fluorouridine, reference compound] as the compound, how does the “effect on growth (growth curves, absorbance at 420 nm)” value [1] read?
Answer: The value was “significant decrease in growth”.

Question: And the “colony growth after overnight co-culture” value [2]?
Answer: Its value is “no growth of either cell type”.

Question: For `COc1cccc2c1C(=O)c1c(O)c3c(c(OC4OC(CO)C(O)C(O)C4O)c1C2=O)C[C@@](OC1OC(CO)C(O)C(O)C1O)(C(C)=O)C[C@@H]3OC1CC(N)C(OC2OC(CO)C(O)C(O)C2O)CO1` (some centres unmarked) [Example 19], which “tumor growth in lung tissue (necropsy and staining at day 25)” value ([3]; 5, 10 or 25 mg/kg/day intraperitoneally for 20 days from Day 3) is on record?
Answer: Its value is “Tumor regression”.

Question: What about the tumor burden ([3]; animals receiving both lacZ and H-2K gene) of the same compound?
Answer: The tumor burden was “lower tumor burden”.

Question: Which “colony growth after overnight co-culture” value [4] does the source give for `O=C(NC(COC1OC(CO)C(O)C(O)C1O)C(O)c1ccc([N+](=O)[O-])cc1)C(Cl)Cl` [Example M0165, D(−)-threo-2,2-dichloro-N-[β-hydroxy-α-(O-β-D-galactopyranosylmethyl)-β-(4-nitrophenyl)ethyl]acetamide] here?
Answer: Its value is “growth of only CSH22 cells”.

Question: For `O=c1[nH]c(=O)n([C@@H]2O[C@H](CO[C@@H]3O[C@H](CO)[C@H](O)[C@H](O)[C@H]3O)[C@@H](O)[C@H]2O)cc1F` [Example M0174, 5-Fluorouridine-5′-O-β-D-Galactopyranoside], which activity at 0.3 µg/mL ([5]; Mus musculus, 0.3 ug/ml, 6 hours exposure, MTT after another 36 hours, read-out: D5 lipofected, % of control growth) is on record?
Answer: Its activity at 0.3 µg/mL is 48%.

Question: And the activity at 5 µg/mL ([5]; Mus musculus, 5 ug/ml, 6 hours exposure, MTT after another 36 hours, read-out: D5 lipofected, % of control growth)?
Answer: The activity at 5 µg/mL was 22%.

Question: And the “effect on cell growth” value ([5]; lipofected D5 cells)?
Answer: The value was “growth inhibited”.

Question: And the “tumor growth (tumor area in mm^2, Day 8 to Day 26)” value [6]?
Answer: Its value is “slight delay in tumor growth”.

Question: What about the “effect on growth (growth curves, absorbance at 420 nm)” value [1] of the same compound?
Answer: The value was “very little effect”.

Question: What about the “tumor growth (tumor area in mm^2, Day 8 to Day 26)” value [7] of the same compound?
Answer: The value was “NO EFFECT”.

Question: What about the activity at 0.3 µg/mL ([8]; Mus musculus, 0.3 ug/ml, 6 hours exposure, MTT after another 36 hours, read-out: D5 % of control growth) of the same compound?
Answer: The activity at 0.3 µg/mL was 110%.

Question: What about the activity at 5 µg/mL ([8]; Mus musculus, 5 ug/ml, 6 hours exposure, MTT after another 36 hours, read-out: D5 % of control growth) of the same compound?
Answer: The activity at 5 µg/mL was 87.9%.

Question: And the “effect on cell growth” value ([8]; non-lipofected cells, even at high dosage values)?
Answer: The value was “unaffected”.

Question: And the “colony growth after overnight co-culture” value [2]?
Answer: The value was “no growth of either cell type”.

Question: What does the source list for `O=[N+]([O-])c1ccccc1O[C@@H]1O[C@H](CO)[C@H](O)[C@H](O)[C@H]1O` [ONPG, orthonitrophenyl β-D-galactopyranoside]?
Answer: Doubling Time (min) [9]: *not measurable; time after start of experiments at which growth halted [9]: *growth halted approximately 2 hours after start of experiments; Doubling Time ([10]; W3110, 0.3 mM IPTG): 215 min; Doubling Time ([10]; W3110, no IPTG): 92 min

Question: With `O=C(N[C@H](CO)[C@H](O)c1ccc([N+](=O)[O-])cc1)C(Cl)Cl` [chloramphenicol, reference compound] as the compound, how does the “colony growth after overnight co-culture” value [4] read?
Answer: The value was “no growth of either cell type”.
